Assay results published in US12193465B2, “Materials and methods for extending shelf-life of foods” (JP Laboratories, Inc., priority 2021, dated 2025).

Columns and labels:
[1] = General shelf-life extension of foods (spoilage criteria of Example 9); conditions: for Effectiveness for controlling one or more spoilage criteria: variety of foods
Protocol: All studies were conducted at a room temperature of about 25° C. To determine the effectiveness of a shelf-life extender, a control sample which was untreated with any shelf-life extenders, was tested identical to the test samples. […] All studies in those Examples of Tables 1-6 were conducted in closed plastic or glass containers. Containers, such as plastic containers, without or with lids having holes can be used if it is advantageous to let excess moisture escape or to prevent condensation of moisture released by some produce.
Food exposed to preservatives or by a sachet was placed in typically polystyrene or acrylic containers depending upon the size and number of food items. Glass jars and bottles were also used. The containers were snap-closed or with a lid. The containers were purchased mainly from Amazon or Webstaurant.com store. When needed, plastic containers with holes or without lids were used.
For controlled exposure and a constant supply of a preservative to foods, sachets containing one or more drops of preservatives were used. Sachets were made by placing an appropriate amount of a preservative in a plastic bag containing a piece of paper and heat sealing the bag. The sachet bag materials used were Tyvek® for solid preservative, polyethylene, polyester and high barrier multilayer films were used for liquid preservatives. These bags were sealed with a heat sealer. The sachet was typically applied on one side of the container containing food.
A piece of paper napkin was taped inside a 100 microns thick polyethylene or polyester Ziploc bag. The size of the bag varied from ˜20 cm×30 cm to ˜60 cm×90 cm depended on the sample with sandwich bags up to gallon bags being exemplary. The paper napkin was wetted with 0.1-0.5 ml of a preservative or a mixture of preservatives. A tray of aluminum, stainless steel or glass containing the foods was placed inside the plastic (polyethylene, polyester and multilayer-laminated) bag and almost closed by locking the Ziploc. Air was blown with an air blower from the unclosed end until the bag was fully blown and then quickly closed tightly by locking the remaining Ziploc. If a preservative was a sublimable solid, it was placed in a petri dish and then placed inside the bag in the tray before blowing air. The exposure time was varied from five minutes to a day depending upon the food. […] The assembly was shaken periodically. After the predetermined time, the tray containing produce was removed from the bag, allowed to de-gas for 10-30 minutes in air and the produce was then placed in an appropriately sized container. Glass and stainless steel containers with lids were also often used.
A solution of one or more preservatives was prepared in a large (e.g., 2-10 liter) glass beaker or a jar. A sack containing the food was prepared by placing the food in a plastic mesh bag. The sack was placed in the solution of the preservative. A smaller glass beaker containing proper amount of water was place over the package to keep the sack soaked in the solution of the preservative during the treatment. The solution was stirred either with a plastic spatula or with a magnet over a magnetic stirrer. After treatment, the mesh sack was removed, the produce was washed in a tray with running water, strained and air dried at 30° C. in an air blowing oven for about 5-10 minutes, while shaking the tray or turning the food periodically followed by placing the sample in an appropriate container.
The food was placed in mesh trays and sprayed with an aqueous solution (1-10%) of a preservative while shaking the tray or turning the food. The solution was allowed to drain from the tray and the food was air dried in an air blowing oven at 30° C. for about 5-10 minutes, while shaking the tray or turning food periodically followed by placing the sample in an appropriate container.

fungus = assay: Fungus growth on treated foods stored in closed containers at room temperature; conditions: for Spoilage Time - Sample: Fungus;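 as to Effectiveness on ginger: compared with untreated control ginger in closed containers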
From the text: (§1) Most of the foods changed color or texture.
Glass jars and bottles were also used. The containers were snap-closed or with a lid.
(§2) These bags were sealed with a heat sealer.
(§3) The assembly was shaken periodically.

[2] = Curdling / cream / solidification of milk; conditions: for Curdling of milk: pasteurized whole and fat-free milk;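 as to Curdling of milk: compared with untreated control milk in closed containers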;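 as to Curdling: compared with untreated control milk in closed containers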
From the text: as §1

[3] = test system: grains, legumes, potatoes, garlic; assay: Germination / sprouting of grains, legumes and tubers; conditions: potatoes
From the text: as §2, §3

With `CC12CCC(CC1=O)C2(C)C` (racemic) [(±)-camphor] the “Shelf-life of flowery vegetables” value [1] was “extended shelf-life”.
With `COc1ccccc1B(O)O` [2-methoxyphenylboronic acid] the “Effectiveness in extending freshness of cold press fresh juices” value (“Effectiveness in extending freshness” for short) (fungus) was “effective” and the Curdling ([2]; raw cow milk and raw goat milk) was “delayed curdling”.
In the case of `Cc1ccc2cccc(O)c2n1` [2-methyl-8-quinolinol], the “Effectiveness for controlling one or more spoilage criteria” value [1] is reported as “effective to a greater or lesser extent”.
For `Cc1ccccc1B(O)O` [2-methylphenylboronic acid], the Curdling of milk [2] was “delayed curdling”.
With `CC1CCCCC1=O` (centres unmarked) [2MC, 2-Methylcyclohexanone] the Fungus growth (fungus; strawberries, raspberries, blackberries and lychee) was “either prevented or significantly delayed”, the “Shelf-life of flowery vegetables” value [1] was “extended shelf-life” and the “Effectiveness for controlling one or more spoilage criteria” value [1] was “effective to a greater or lesser extent”.
For `Cc1cc(C)cc(B(O)O)c1` [3,5-dimethylphenylboronic acid], the “Effectiveness in extending freshness” value (fungus) was “effective”, the Curdling of milk [2] was “delayed curdling” and the Curdling ([2]; raw cow milk and raw goat milk) was “delayed curdling”.
For `OB(O)c1cccc(Cl)c1` [3-chlorophenylboronic acid, 3-Chlorophenylboronic acid], the “Effectiveness in extending freshness” value (fungus) was “effective”, the “Shelf-life of raw milk yogurt” value (fungus; raw milk yogurt) was “extended shelf-life” and the Curdling ([2]; Example 135, fat-free milk) was “either prevented or significantly delayed”. For the same molecule, the “Spoilage Time - Sample (Solid)” value ([2]; Pasteurized fat free milk, 0.05 g, control 3 days) was 14 days, the Curdling of milk [2] was “delayed curdling” and the Curdling ([2]; raw cow milk and raw goat milk) was “delayed curdling”.
In the case of `COc1cccc(B(O)O)c1` [3-methoxyphenylboronic acid, 3-Methoxyphenylboronic acid], the Fungus growth (fungus; 96 h) is reported as > 27 days, the “Spoilage Time - Sample (Fungus)” value (fungus; Orange juice with peel, 0.02 g, control 4 days) is reported as 27 days and the Curdling of milk [2] is reported as “delayed curdling”. The Curdling ([2]; raw cow milk and raw goat milk) was “delayed curdling”.
With `COC(=O)c1ccc(B(O)O)cc1` [4-(methoxycarbonyl)phenylboronic acid] the “Effectiveness in extending freshness” value (fungus) was “effective”, the Curdling of milk [2] was “delayed curdling” and the Curdling ([2]; raw cow milk and raw goat milk) was “delayed curdling”.
In the case of `OB(O)c1ccc(-c2ccccc2)cc1` [4-biphenylboronic acid], the “Effectiveness in extending freshness” value (fungus) is reported as “effective”, the Curdling of milk [2] is reported as “delayed curdling” and the Curdling ([2]; raw cow milk and raw goat milk) is reported as “delayed curdling”.
With `OB(O)c1ccc(Br)cc1` [4-bromophenylboronic acid, 4-Bromophenylboronic acid] the Fungus growth (fungus; Example 134, raw milk yogurt, preservative added, control 3 days) was > 5 days, the “Spoilage Time - Sample (Fungus)” value (fungus; Raw milk yogurt, 0.10 g, control 3 days) was 5 days and the “Effectiveness in extending freshness” value (fungus) was “effective”. For the same molecule, the Curdling of milk [2] was “delayed curdling” and the Curdling ([2]; raw cow milk and raw goat milk) was “delayed curdling”.
With `CC(=O)CC(C)(C)O` [4-hydroxy-4-methyl-2-pentanone] the “Effectiveness for controlling one or more spoilage criteria” value [1] was “effective to a greater or lesser extent”.
With `CC1CCC(=O)CC1` [4-methylcyclohexanone] the “Shelf-life of flowery vegetables” value [1] was “extended shelf-life” and the “Effectiveness for controlling one or more spoilage criteria” value [1] was “effective to a greater or lesser extent”.
In the case of `CC(C)(C)c1ccc(B(O)O)cc1` [4-tert-butylphenylboronic acid, 4-tert-Butylphenylboronic acid], the “Shelf-life of tomato juice” value (fungus; Example 133, fresh cold pressed tomato juice) is reported as “improve shelf-life”, the “Spoilage Time - Sample (Fungus)” value (fungus; Tomato juice, 0.20 g, control 4 days) is reported as 27 days and the “Shelf-life of raw milk yogurt” value (fungus; raw milk yogurt) is reported as “extended shelf-life”. The Curdling of milk [2] was “delayed curdling” and the Curdling ([2]; raw cow milk and raw goat milk) was “delayed curdling”.
For `N.NC(=O)O` [ACB, Ammonium carbaminate], the “Spoilage Time - Sample (Fungus)” value (fungus; Fresh, unshelled peanuts, Sachet, control 5 days) was 45 days.
For `O=C1CCCCCC1` [CH, Cycloheptanone], the “Spoilage Time - Sample” value (fungus; Example 91, Blueberry, Sachet, control 5 days) was 67 days, the “Shelf-life of flowery vegetables” value [1] was “extended shelf-life” and the “Effectiveness for controlling one or more spoilage criteria” value [1] was “effective to a greater or lesser extent”.
With `O=C1CCCC1` [CP, Cyclopentanone] the “Spoilage Time - Sample” value (fungus; Example 115, Strawberry, Sachet, control 2 days) was 5 days, the “Shelf-life of flowery vegetables” value [1] was “extended shelf-life” and the “Effectiveness for controlling one or more spoilage criteria” value [1] was “effective to a greater or lesser extent”.
With `CCN=C=S` [EI, ethyl isothiocyanate] the “Spoilage Time - Sample” value (fungus; Example 85, Tomato juice, 0.02 g, control 4 days) was 27 days, the “Spoilage Time - Sample” value (fungus; Example 85, Tomato juice, 0.02 g, control 4 days, listed as Ethyl isothiocyanate) was “improve shelf-life” and the Effectiveness on ginger (fungus; ginger, pre-exposure and sachet method) was “found effective”. For the same molecule, the “Shelf-life of raw milk yogurt” value (fungus; raw milk yogurt) was “extended shelf-life”, the “Effectiveness at extending the shelf-life of potatoes” value (shortened to “Effectiveness … of potatoes”) [3] was “effective” and the “Spoilage Time - Sample” value ([2]; Example 84, Cream, Raw cow milk, 0.07 g, control 3 days) was 24 days. For the same molecule, the “Spoilage Time - Sample” value ([2]; Example 86, Solid, Pasteurized whole milk, 0.05 g, control 3 days) was 14 days and the “Spoilage Time - Sample” value ([2]; Example 86, Solid, Pasteurized whole milk, 0.05 g, control 3 days, listed as ethyl isothiocyanate) was “either prevented or significantly delayed”.
In the case of `CC1=CCCC1` [MCP, 1-Methylcyclopentene], the “Shelf-life of flowery vegetables” value [1] is reported as “extended shelf-life”, the “Shelf-life of shelled and unshelled peanuts” value ([1]; peanuts) is reported as “extended” and the “Effectiveness for controlling one or more spoilage criteria” value [1] is reported as “effective to a greater or lesser extent”.
With `S=C=Nc1ccccc1` [PI, phenyl isothiocyanate] the “Spoilage Time - Sample” value (fungus; Example 87, White pearl onions, Sachet, 100% relative humidity, control 8 days) was 48 days, the “Spoilage Time - Sample” value (fungus; Example 88, Yellow pearl onions, Sachet, 100% relative humidity, control 24 days) was 48 days and the “Effectiveness in extending freshness” value (fungus) was “effective”. The “Effectiveness … of potatoes” value [3] was “effective” and the Curdling ([2]; raw cow milk and raw goat milk) was “delayed curdling”.
In the case of `N.N.N.O=P(O)(O)O` [ammonium phosphate], the “Effectiveness … of potatoes” value [3] is reported as “effective”.
With `c1ccc(COCc2ccccc2)cc1` [benzyl ether, Benzyl Ether] the Fungus growth (fungus; Example 146, ginger, pre-exposed to vapor, control 12 days) was > 37 days, the “Spoilage Time - Sample (Fungus)” value (fungus; Ginger, 1 hr P-E, control 12 days) was 37 days and the “Effectiveness for controlling one or more spoilage criteria” value [1] was “effective to a greater or lesser extent”.
In the case of `S=C=NCc1ccccc1` [benzyl isothiocyanate], the Curdling ([2]; raw cow milk and raw goat milk) is reported as “delayed curdling”.
With `OB(O)O` [boric acid] the Curdling of milk [2] was “delayed curdling”.
For `CCCCN=C=S` [butyl isothiocyanate], the “Effectiveness in extending freshness” value (fungus) was “effective” and the Curdling ([2]; raw cow milk and raw goat milk) was “delayed curdling”.
In the case of `CCCCB(O)O` [butylboronic acid], the “Effectiveness in extending freshness” value (fungus) is reported as “effective”, the “Shelf-life of raw milk yogurt” value (fungus; raw milk yogurt) is reported as “extended shelf-life” and the Curdling of milk [2] is reported as “delayed curdling”. The Curdling ([2]; raw cow milk and raw goat milk) was “delayed curdling”.
For `O=c1ccc2ccccc2o1` [coumarin], the “Effectiveness for controlling one or more spoilage criteria” value [1] was “effective to a greater or lesser extent”.
For `COC(=O)CC(=O)OC` [dimethyl malonate], the “Effectiveness for controlling one or more spoilage criteria” value [1] was “effective to a greater or lesser extent”.
In the case of `S` [hydrogen sulfide, Hydrogen sulfide], the Fungus growth (fungus; Example 159, snow peas, Himalayan salt sachet, control 6 days) is reported as > 11 days, the “Spoilage Time - Sample (Fungus)” value (fungus; Snow peas, Sachet, control 6 days (Example 159)) is reported as 11 days and the “Spoilage Time - Sample (Fungus)” value (fungus; Snow peas, Sachet, control 11 days (Example 160)) is reported as 15 days.
For `COC(=O)C1CCCC1=O` (centres unmarked) [methyl cyclopentanone-2-carboxylate], the “Effectiveness for controlling one or more spoilage criteria” value [1] was “effective to a greater or lesser extent”.
For `Cc1ccc(N=C=S)cc1` [p-tolyl isothiocyanate], the Curdling ([2]; raw cow milk and raw goat milk) was “delayed curdling”.
In the case of `Oc1cccc(O)c1` [resorcinol], the “Effectiveness for controlling one or more spoilage criteria” value [1] is reported as “effective to a greater or lesser extent”.
